Data taken from paper PMC9532399, “The lysosomal transporter TAPL has a dual role as peptide translocator and phosphatidylserine floppase” (Nature Communications, 2022).
Residue numbers refer to the chain shown, from its start. Residues, ends and D or L forms follow the SMILES beside them. *: point of attachment. X1 = CC[N+]1=C(C=CC=CC=C2N(CCCCCC(=O)NCCN3C(=O)CC(*)C3=O)c3ccc(S(=O)(=O)[O-])cc3C2(C)C)C(C)(C)c2cc(S(=O)(=O)O)ccc21

What was measured:
[1] = molecular target: T1, TAPL Y405A mutant (Mus musculus, UniProt Q9JJ59, Y405A); experiment: Microscale thermophoresis, DM-purified Y405A; format: binding; conditions: Y405A vs wild-type
T1 construct: thrombin cleavage site (C); eGFP (C); 10XHis (C); made in house; host or cells: Trichoplusia ni High Five (Hi5) insect cells, baculovirus (pVL1393)
T1 sequence (Q9JJ59 143-762 Y405A): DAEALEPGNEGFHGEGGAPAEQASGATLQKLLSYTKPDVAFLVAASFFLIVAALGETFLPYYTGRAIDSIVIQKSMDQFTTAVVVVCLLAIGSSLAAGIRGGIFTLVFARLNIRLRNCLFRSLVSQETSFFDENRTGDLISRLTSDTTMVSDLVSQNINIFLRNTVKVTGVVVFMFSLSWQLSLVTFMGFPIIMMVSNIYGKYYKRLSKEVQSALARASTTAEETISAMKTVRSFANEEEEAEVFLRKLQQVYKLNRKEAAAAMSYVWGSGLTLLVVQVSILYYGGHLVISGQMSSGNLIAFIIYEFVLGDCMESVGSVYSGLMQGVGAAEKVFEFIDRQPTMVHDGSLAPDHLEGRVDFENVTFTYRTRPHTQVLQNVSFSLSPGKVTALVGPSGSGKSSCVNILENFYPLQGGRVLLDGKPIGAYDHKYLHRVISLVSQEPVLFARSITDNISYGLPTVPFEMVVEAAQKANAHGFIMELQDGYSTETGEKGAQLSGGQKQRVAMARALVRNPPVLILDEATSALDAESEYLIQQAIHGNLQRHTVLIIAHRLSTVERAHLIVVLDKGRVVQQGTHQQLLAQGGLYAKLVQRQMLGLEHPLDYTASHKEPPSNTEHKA
Description: Binding of 9-mer peptide (RRYQNSTC^Cy-5L) to DM-purified ΔTMD0 was monitored by microscale thermophoresis as described previously. Briefly, 9-mer peptide was incubated with a 10x molar excess of Cy5 dye (Thermo Fisher Scientific) in 50 mM HEPES–NaOH pH 7.5 at RT for 2 h. The labeled peptide was purified from the excess dye with a desalting column. Cy5-labeled peptide (0.2 μM) was added to serial 2-fold dilutions of protein. The mixtures were incubated for 10 min at RT and loaded onto Monolith NT.115 standard-treated capillaries (NanoTemper Technologies). Thermophoretic movements were induced by infrared laser activation. Subsequent fluorescence changes were monitored with a Monolith NT.115 pico device and plotted against protein concentration. The results were analyzed with MO.Affinity Analysis software.

[2] = molecular target: T2, mouse TAPL ΔTMD0 (Mus musculus, UniProt Q9JJ59); experiment: NADH-coupled ATPase assay, nanodisc-reconstituted ΔTMD0; format: biochemical; conditions: POPE nanodiscs, data not shown
T2 construct: thrombin cleavage site (C); eGFP (C); 10XHis (C); made in house; host or cells: Trichoplusia ni High Five (Hi5) insect cells, baculovirus (pVL1393)
T2 sequence (Q9JJ59 143-762): T1 sequence (Q9JJ59 143-762 Y405A) with A263Y
Description: […] Each lipid was dissolved in 0.17% (w/v) DM and 0.017% (w/v) CHS and mixed with MSP1 and DM/CHS-purified ΔTMD0 at a molar ratio of 150:4:1. After incubation on ice for 10 min, the mixture was treated with 60 mg of Bio-beads (Bio-Rad) at 4 °C for 4 h to remove detergent. The supernatant was additionally incubated overnight with 120 mg of fresh Bio-Beads at 4 °C. The final supernatant was injected onto a Superdex 200 Increase 10/300 GL column equilibrated with a buffer of 20 mM HEPES–NaOH pH 7.5 and 200 mM NaCl. The elution fractions containing protein-loaded nanodiscs were pooled and used for cryo-EM and functional analyses.
The ATPase activities of proteins obtained after various purification procedures were determined by NADH-coupled spectrophotometric assays. 10 μg of DM-purified or nanodisc-reconstituted protein was added to 140 μL of reaction buffer containing 50 mM HEPES–KOH pH 8.0, 60 μg/mL pyruvate kinase (Roche), 16 μg/mL lactate dehydrogenase (Roche), 10 mM phosphoenolpyruvate (Roche), 0.3 mM NADH, 3 mM ATP, 10 mM MgCl2, and 0.17% (w/v) DM in the presence or absence of 250 μM peptide. […] ATP hydrolysis activity was monitored at 37 °C for 3 min by measuring the rate of decline of NADH absorbance at 340 nm. […] The kinetic parameters of ATP hydrolysis were calculated by fitting the initial rates of ATP hydrolysis to the Michaelis–Menten equation using PRISM 4.0 (GraphPad software).

[3] = Aggregation in ATPase reaction buffer; format: physicochemical; conditions: addition to the ATPase reaction buffer, data not shown
Description: The ATPase activities of proteins obtained after various purification procedures were determined by NADH-coupled spectrophotometric assays. 10 μg of DM-purified or nanodisc-reconstituted protein was added to 140 μL of reaction buffer containing 50 mM HEPES–KOH pH 8.0, 60 μg/mL pyruvate kinase (Roche), 16 μg/mL lactate dehydrogenase (Roche), 10 mM phosphoenolpyruvate (Roche), 0.3 mM NADH, 3 mM ATP, 10 mM MgCl2, and 0.17% (w/v) DM in the presence or absence of 250 μM peptide. For proteins reconstituted into nanodiscs, DM was not added to the reaction buffer. For lipid-stimulated ATPase assays, the thin film of lipids was hydrated in 100 μL of buffer containing 50 mM HEPES–KOH pH 8.0 and 10 mM MgCl2 to yield a 10 mM solution. After sonication of the lipid solution for 10 min to decrease its turbidity, the reaction was initiated by adding varying concentrations of lipids to the mixture. ATP hydrolysis activity was monitored at 37 °C for 3 min by measuring the rate of decline of NADH absorbance at 340 nm. To inhibit ATP hydrolysis, the reaction mixture was incubated with 3 mM AMP-PNP or 8 mM NaF/2 mM BeSO4 for 5 min at RT. The kinetic parameters of ATP hydrolysis were calculated by fitting the initial rates of ATP hydrolysis to the Michaelis–Menten equation using PRISM 4.0 (GraphPad software).

[4] = set-up: method as in PMID 11867457; conditions: cited from earlier work

CC[N+]1=C(C=CC=CC=C2N(CCCCCC(=O)NCCN3C(=O)CC(SC[C@H](NC(=O)[C@@H](NC(=O)[C@H](CO)NC(=O)[C@H](CC(N)=O)NC(=O)[C@H](CCC(N)=O)NC(=O)[C@H](Cc4ccc(O)cc4)NC(=O)[C@H](CCCNC(=N)N)NC(=O)[C@@H](N)CCCNC(=N)N)[C@@H](C)O)C(=O)N[C@@H](CC(C)C)C(=O)O)C3=O)c3ccc(S(=O)(=O)[O-])cc3C2(C)C)C(C)(C)c2cc(S(=O)(=O)O)ccc21 (stereo partly drawn) [RRYQNSTC^Cy-5L] (H-RRYQNSTC(X1)L-OH; N-terminus and C-terminus assumed)
decrease in peptide affinity [1]: 73 fold

CCCCCCCC/C=C\CCCCCCCC(=O)O[C@H](COC(=O)CCCCCCCCCCCCCCC)COP(=O)(O)OCCN [POPE, 1-palmitoyl-2-oleoyl-sn-glycero-3-phosphoethanolamine]
ΔTMD0 ATPase activity in nanodiscs [2]: no ΔTMD0 activity was detected | aggregation [3]: caused nonspecific aggregation

CC(C)CCC[C@@H](C)[C@H]1CC[C@H]2[C@@H]3CC=C4C[C@@H](O)CC[C@]4(C)[C@H]3CC[C@]12C [cholesterol]
time of spontaneous movement across the liposome bilayer [4]: < 1 min
